Data published in the supplement of paper PMC7661543.
± gives the standard deviation of the averaged measurements.

Assays:
Test in all cases: relative cell number vs DMSO control (72 h) (% of DMSO); higher = less growth inhibition (more cells)
Conditions in all cases: sgRNA knockout: sgNT
SKBR3 = tested on: SKBR3
Experimental: (§1)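 QMAP-Seq: a pool of 5 breast cancer cell lines (ZR-75-1, SKBR3, HCC-38, MDA-MB-231, BT-20), each carrying 12 doxycycline-inducible Cas9 sgRNA perturbations (11 knockouts plus non-targeting sgNT), was treated with compounds for 72 h at four 10-fold doses (10 nM-10 uM or 1 nM-1 uM range). Barcodes were amplified and sequenced, and cell number was interpolated from 293T spike-in standard curves. The result is expressed as % of the median of DMSO wells. Two biological replicates.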

ZR-75-1 = tested on: ZR-75-1
Experimental: as §1

MDA-MB-231 = tested on: MDA-MB-231
Experimental: as §1

HCC-38 = tested on: HCC-38
Experimental: as §1

BT-20 = tested on: BT-20
Experimental: as §1

| Compound | relative cell number (SKBR3; 10 nM) | relative cell number (SKBR3; 100 nM) | relative cell number (SKBR3; 1000 nM) | relative cell number (SKBR3; 10000 nM) | relative cell number (ZR-75-1; 10 nM) | relative cell number (ZR-75-1; 100 nM) | relative cell number (ZR-75-1; 1000 nM) | relative cell number (ZR-75-1; 10000 nM) | relative cell number (MDA-MB-231; 10 nM) | relative cell number (MDA-MB-231; 100 nM) | relative cell number (MDA-MB-231; 1000 nM) | relative cell number (MDA-MB-231; 10000 nM) | relative cell number (HCC-38; 10 nM) | relative cell number (HCC-38; 100 nM) | relative cell number (HCC-38; 1000 nM) | relative cell number (HCC-38; 10000 nM) | relative cell number (BT-20; 10 nM) | relative cell number (BT-20; 100 nM) | relative cell number (BT-20; 1000 nM) | relative cell number (BT-20; 10000 nM) |
| --- | --- | --- | --- | --- | --- | --- | --- | --- | --- | --- | --- | --- | --- | --- | --- | --- | --- | --- | --- | --- |
| Cc1cc(N2CCOCC2)cc2[nH]c(-c3c(NC[C@@H](O)c4cccc(Cl)c4)cc[nH]c3=O)nc12 | 107 ± 3.5 | 73 ± 16 | 60 ± 15 | 60.3 ± 12 | 78.8 ± 51 | 53.3 ± 10 | 84.2 ± 8.8 | 13.7 ± 10 | 85.2 ± 7.6 | 76.6 ± 42 | 77.5 ± 2.4 | 15 ± 2.3 | 94.97 ± 0.84 | 89.4 ± 24 | 93.6 ± 7.3 | 30.7 ± 3.4 | 70.9 ± 10 | 88.3 ± 11 | 94 ± 14 | 67.4 ± 17 |
| Cc1ccc(C(=O)N(CCCN)[C@@H](c2oc3cc(Cl)ccc3c(=O)c2Cc2ccccc2)C(C)C)cc1 | 15.6 ± 15 | 11.3 ± 1.2 | 15.3 ± 5.2 | 5.26 ± 4.4 | 26.5 ± 2.3 | 21.8 ± 0.36 | 27.9 ± 5.1 | 3 ± 1.2 | 23 ± 9 | 16.8 ± 5.6 | 17.2 ± 11 | 4.71 ± 1.3 | 24 ± 0.85 | 27.8 ± 8.2 | 28.9 ± 4.7 | 5.58 ± 0.82 | 29.6 ± 8.5 | 27.7 ± 4.7 | 33.7 ± 11 | 5.17 ± 2.2 |
| Cc1ccc(S(=O)(=O)OCC(=O)Nc2ccc(C(=O)O)c(O)c2)cc1 | 83.3 ± 40 | 77.3 ± 3.9 | 93.7 ± 14 | 116 ± 58 | 91.2 ± 35 | 68.9 ± 12 | 99.1 ± 36 | 103 ± 8.6 | 128 ± 26 | 61.9 ± 5.4 | 117 ± 20 | 86.1 ± 20 | 119 ± 7.6 | 102 ± 1.3 | 91.8 ± 5.4 | 89.6 ± 9.3 | 101 ± 26 | 115 ± 40 | 108 ± 17 | 95.6 ± 33 |
| Cc1ccccc1-n1c(Cn2cnc3c(N)ncnc32)nc2cccc(C)c2c1=O | 104 ± 11 | 107 ± 12 | 101.8 ± 0.55 | 93.3 ± 7.2 | 112 ± 23 | 98.5 ± 40 | 71.4 ± 14 | 105 ± 6 | 123 ± 7.7 | 128 ± 20 | 101 ± 9 | 153 ± 48 | 97.9 ± 27 | 104 ± 18 | 102 ± 12 | 95.6 ± 8.2 | 110 ± 2.1 | 133 ± 22 | 102 ± 15 | 113 ± 5.9 |
| Cc1cnc(-c2cnc(NCCNc3ccc(C#N)cn3)nc2-c2ccc(Cl)cc2Cl)[nH]1 | 99.6 ± 12 | 91.2 ± 2.6 | 73.7 ± 18 | 85.9 ± 40 | 104 ± 21 | 85.3 ± 13 | 66.2 ± 15 | 77.1 ± 10 | 88.2 ± 11 | 92.2 ± 8.4 | 79.9 ± 25 | 72.7 ± 21 | 98.4 ± 21 | 89.08 ± 0.19 | 104 ± 2.4 | 126.9 ± 0.6 | 110 ± 4.5 | 103 ± 19 | 73.6 ± 3.6 | 106 ± 22 |
| Cc1cnc(Nc2ccc(OCCN3CCCC3)cc2)nc1Nc1cccc(S(=O)(=O)NC(C)(C)C)c1 | 89 ± 48 | 68.7 ± 15 | 75.4 ± 15 | 16.9 ± 0.89 | 105 ± 22 | 108 ± 2.4 | 71.3 ± 26 | 10.8 ± 5.8 | 88.9 ± 26 | 116 ± 5.9 | 64.9 ± 6.9 | 5.85 ± 0.9 | 99.1 ± 2.6 | 90.301 ± 0.055 | 68.7 ± 8.1 | 11.7 ± 2.2 | 99.9 ± 19 | 92.6 ± 1.8 | 81.3 ± 12 | 42.5 ± 4.4 |
| Cc1nc(Nc2n[nH]c3c2CN(C(=O)N[C@H](CN(C)C)c2ccccc2)C3(C)C)c2sccc2n1 | 60.9 ± 22 | 52.5 ± 9 | 21.3 ± 0.55 | 3.5 ± 2.2 | 40.4 ± 14 | 49.8 ± 19 | 25.6 ± 4.3 | 3.38 ± 1.2 | 35.5 ± 11 | 27.3 ± 6.1 | 13.4 ± 6.6 | 4.59 ± 3.4 | 64.9 ± 5 | 54.5 ± 3.9 | 31.5 ± 1.2 | 13.5 ± 5.3 | 77.3 ± 21 | 46 ± 2.4 | 31.8 ± 6.6 | 11.6 ± 6.4 |
| N#Cc1ccc(COC[C@H]2O[C@@H](n3c(NCc4ccc(Cl)c(Cl)c4)nc4c(N)ncnc43)[C@H](O)[C@@H]2O)cc1 | 105 ± 14 | 139 ± 29 | 106 ± 24 | 60.1 ± 4.3 | 105 ± 48 | 90.5 ± 13 | 64.7 ± 41 | 39.1 ± 0.67 | 83.77 ± 0.66 | 98.3 ± 7 | 115 ± 28 | 28.9 ± 0.7 | 90.8 ± 12 | 99.2 ± 8.1 | 99.1 ± 19 | 93.9 ± 15 | 108 ± 25 | 92.7 ± 6.8 | 91.1 ± 26 | 73.2 ± 18 |
| O=C(NOCC(O)CO)c1cc(Br)c(F)c(F)c1Nc1ccc(I)cc1F (stereo not given) | 118 ± 48 | 123 ± 58 | 112 ± 36 | 83.5 ± 34 | 83.5 ± 48 | 76.9 ± 7.1 | 71.2 ± 4.6 | 56.5 ± 2.3 | 105 ± 17 | 75.8 ± 19 | 56.5 ± 25 | 47.5 ± 17 | 85.4 ± 6.8 | 83.2 ± 6.4 | 81.8 ± 3.8 | 86.2 ± 8.4 | 86.8 ± 14 | 86.9 ± 14 | 94.1 ± 9.3 | 83.5 ± 7.2 |
| O=C1NC(=O)/C(=C/c2ccc3nccc(-c4ccncc4)c3c2)S1 | 112 ± 35 | 123 ± 53 | 90.9 ± 9.8 | 34.7 ± 6.4 | 78.3 ± 2.5 | 128 ± 6.6 | 99 ± 38 | 38.6 ± 7.8 | 79.8 ± 14 | 87.5 ± 0.95 | 96 ± 18 | 54.1 ± 2.6 | 95.7 ± 5 | 85.8 ± 11 | 87.5 ± 1.1 | 42.38 ± 0.22 | 92.4 ± 28 | 81.1 ± 9.8 | 62.2 ± 16 | 46.5 ± 18 |
| O=c1cc(-c2cccc3c2Sc2ccccc2S3)oc(N2CCOCC2)c1 | 85.1 ± 17 | 94.4 ± 12 | 115 ± 17 | 54.3 ± 6.1 | 81.3 ± 28 | 98.8 ± 25 | 75.5 ± 26 | 58.3 ± 15 | 119 ± 4.4 | 77.3 ± 7.3 | 89.5 ± 12 | 46.8 ± 19 | 91.6 ± 7.9 | 79.2 ± 1.7 | 88.4 ± 18 | 82.7 ± 9.9 | 76.9 ± 1.4 | 116 ± 4.1 | 110.8 ± 0.94 | 109 ± 22 |
| OCc1ccc(-c2ccc(-c3ccc(CO)s3)o2)s1 | 84.8 ± 34 | 15.6 ± 0.84 | 10.9 ± 4.8 | 5.65 ± 0.36 | 59.9 ± 6 | 9.97 ± 1.1 | 10.6 ± 4.2 | 4.09 ± 1.8 | 117 ± 27 | 118 ± 5.9 | 102 ± 7.9 | 40 ± 2.9 | 118 ± 10 | 119 ± 4.3 | 110 ± 18 | 63.6 ± 18 | 110 ± 32 | 77.9 ± 13 | 24.9 ± 1.5 | 12.3 ± 6.7 |
| CC/C(=C(\c1ccc(O)cc1)c1ccc(OCCN(C)C)cc1)c1ccccc1 [4-Hydroxytamoxifen] | 104 ± 19 | 100 ± 45 | 80 ± 2.2 | 40.6 ± 10 | 95.8 ± 9.6 | 61.5 ± 4.8 | 70.2 ± 15 | 34.6 ± 8.6 | 95.8 ± 17 | 88.2 ± 7.9 | 100 ± 3.5 | 96.2 ± 9 | 94.8 ± 10 | 93.2 ± 5.7 | 90.4 ± 20 | 81.5 ± 14 | 96.8 ± 8.9 | 88.3 ± 28 | 106 ± 10 | 74.5 ± 21 |
